From patent publication US7442783B2, “Natural IgM antibodies and inhibitors thereof” (The CBR Institute for Biomedical Research, Inc., priority 2004, dated 2008)
Where “and” joins values, the source holds several entries; their conditions need not be identical. Equal values may be shown once.

Legend:
[1] = system: IgM^CM-31; experiment: SPR analysis of peptide binding to control IgM^CM-31-coupled surface; set-up: species or system mouse; settings: peptide injected at 120 μM
Experimental: FIG. 9D is a graph showing the binding isotherm for the injection of the self-peptide N2 at 120 μM over a surface coupled with the control IgM^CM-31.
(§1) An IgM (IgM^CM-22 or IgM^CM-31) antibody was immobilized by amine coupling in a BiaCore SPR CM5™ chip flowcell at a density of 33,400 response units (RU) ˜33 ng/mm^2 as described. Vorup-Jensen et al, PNAS USA 100: 1873-1878, 2003. Briefly, a reference flow cell was prepared by coupling of ethanolamine-HCl. Peptides, diluted in PBS running buffer, were flowed separately over the IgM-coupled surface and the reference at a rate of 10 μl/min at 25° C. and with the data collection rate at 10 Hz. […] Binding isotherms were derived by subtracting the response in the reference cell from the response of the IgM-coupled surface. Following each run, the surface was regenerated by injecting 40 μl 0.05% (v/v) polyoxyethylenesorbitan monolaureate/PBS.

[2] = system: RAG-1^−/− mice; experiment: Intestinal RI model in reconstituted RAG-1^−/− mice (histopathology, immunohistochemistry); format: in vivo, mouse; settings: for mean pathology score: 40 min ischemia, 3 h reperfusion
Experimental: (§2) Surgical protocol for RI was performed as previously described (Zhang et al. (2004) PNAS USA 101:3886-91). […] After 40 minutes of ischemia, the microclip was removed, and reperfusion of the mesenteric vasculature was confirmed by the return of pulsation to the vascular arcade and a change to pink color. The incision was closed, and all animals kept warm for 3 hours. Reconstituted RAG-1^−/− animals received either IgM mixed with peptide or saline in 0.2 ml volume intravenously 30 min before the initial laparotomy. WT animals were treated with saline or peptide i.v. 5 minutes prior to reperfusion. At the end of reperfusion, the ischemic segment of the jejunum was harvested and the central 4 cm was cut for pathological analysis.
(§3) Cryostat sections of intestinal tissues were stained by hematoxylin and eosin (H&E) and examined by light microscopy for mucosal damage. Pathology score was assessed based on procedure by Chiu (Chiu et al, Arch Surg 101: 484-488, 1970; Chiu, et al, Arch Surg 101: 478-483, 1970) that included direct inspection of all microvilli over a 4 cm stretch of jejuneum as described. Zhang et al. (2004) PNAS USA 101:3886-91. For immuno-fluorescence, cryosections fixed with 4% (w/v) paraformaldehyde were incubated for varying periods with either biotin-labeled anti-mouse IgM (Becton Dickinson, Calif.) followed by 1 hour with streptavidin-Alexa-568 (1:500 dilution, Molecular Probes, Oreg.). C4 deposition was detected by staining with FITC-labeled rabbit anti-huC4c (DAKO, Colo.), followed by anti-rabbit-Alexa 488 (Molecular Probes, Oreg.). The specificity of anti-C4c staining was confirmed by staining serial sections with biotin-labeled anti-mouse C4 for 1 hour followed by streptavidin-FITC (Becton Dickinson, Calif.). C3 deposition was detected by treating with FITC-labeled anti-C3 (DAKO, Colo.). Sections were mounted in Anti-fade Mounting Medium with DAPI (Molecular Probes, Oreg.).

[3] = biological target: IgM^CM-22; experiment: SPR analysis of peptide binding to IgM^CM-22-coupled surface; set-up: species or system mouse; settings: calculated from steady-state response levels, 1:1 Langmuir fit; mean±SD, n=2; 25° C.
Experimental: FIG. 9A is a graph showing the surface plasmon resonance for the self-peptide N2. Binding isotherms for samples of the self-peptide N2 with concentration from 10.5 μM to 120 μM injected over the IgM^CM-22-coupled surface.
FIG. 9B is a graph showing the surface plasmon resonance for a control peptide. Binding isotherm for a same-length, random-sequence control peptide (AGCMPYVRIPTA; SEQ ID NO: 62), injected at a concentration of 117 μM over the IgM^CM-22-coupled surface.
as §1

[4] = system: WT mice; experiment: Intestinal RI model in wild type mice (histopathology, immunohistochemistry); format: in vivo, mouse; settings: peptide i.v. five minutes prior to reperfusion
Experimental: as §2, §3

[5] = biological target: IgM^CM-22; experiment: ELISA: synthetic peptide P8 inhibits IgM^CM-22 binding of phage clone P8; set-up: species or system mouse; settings: peptide added to IgM^CM-22-coated plate prior to 5×10^11 PFU phage; estimated; read-out: concentration of P8 peptide yielding 50% inhibition of phage P8 binding to IgM^CM-22
Experimental: FIG. 6B is a bar graph showing that the synthetic peptide P8 inhibits IgM^CM-22 binding of phage clone P8. ELISA was performed with varying concentrations of the synthetic peptide P8 added to the IgM^CM-22-coated plate prior to the addition of 5×10^11 PFU phage. The results are representative of at least three independent experiments.
(§4) ELISA was performed as described earlier (Zhang et al. (2004) PNAS USA 101:3886-91). Briefly, IgM binding to phage or phage-specific peptides was determined by coating a 96-well plate with saturating amounts of antigen. Subsequent to blocking, IgM was added (1 or 10 μg/ml) for 2 hr at 37° C. Plates were washed and then developed with alkaline phosphatase-labeled goat anti-mouse IgM (Sigma, MO). Binding of IgM to NMHC-II was determined by culturing 96-well plates previously coated with specific rabbit antibody (NMHC-II A & B; Covance Research Products; NMHC-II C a gift from Dr. Adelstein, NHLBI, NIH, Bethesda, Md.) or pan-myosin Hc (Sigma, Mo.) with intestinal lysates prepared from IgM^CM-22 reconstituted RAG-1^−/− mice either sham treated or treated for ischemia as described (Zhang et al. (2004) PNAS USA 101:3886-91). Lysates were prepared as described for immune precipitation (see below). Alkaline-phosphatase labeled goat anti-mouse IgM (Sigma, Mo.) was then used to detect bound IgM. […]

[6] = system: IgM^CM-22; experiment: ELISA screening of M-13 phage clones on IgM^CM-22-coated plate; format: binding, mouse; settings: five phage clones compared, ELISA (FIG. 6A)
From the text: FIG. 6A is a graph showing the ELISA screening of M-13 phage-display library for IgM^CM-22-specific peptides. Symbols: […]-P1 clone; X-P2 clone, ∘-P7 clone; ⋄-P8 clone. The plate was coated with a solution of IgM^CM-22 before addition of varying concentrations of phage-clones. The results are representative of at least three independent experiments.
A 12-mer M-13 phage display library (New England Biolab, Mass.) was screened by 4 rounds with MBL-beads coated with IgM^CM-22 and 2 rounds with IgM^CM-75 according to the manufacturer's recommendation. Phage clones were selected from the enriched pool and the nucleotide sequence of the relevant phage gene determined for at least ten clones. […]
ELISA was performed as described earlier (Zhang et al. (2004) PNAS USA 101:3886-91). Briefly, IgM binding to phage or phage-specific peptides was determined by coating a 96-well plate with saturating amounts of antigen. […] Binding of IgM to NMHC-II was determined by culturing 96-well plates previously coated with specific rabbit antibody (NMHC-II A & B; Covance Research Products; NMHC-II C a gift from Dr. Adelstein, NHLBI, NIH, Bethesda, Md.) or pan-myosin Hc (Sigma, Mo.) with intestinal lysates prepared from IgM^CM-22 reconstituted RAG-1^−/− mice either sham treated or treated for ischemia as described (Zhang et al. (2004) PNAS USA 101:3886-91). […]

[7] = system: IgM^CM-22; experiment: Titration of peptide with IgM^CM-22; set-up: species or system mouse; settings: previous titration of peptide with IgM^CM-22
[8] = system: antibody deficient mice (RAG-1); experiment: Intestinal I/R injury in antibody-deficient (RAG-1) mice reconstituted with hybridoma IgM; format: in vivo, mouse; settings: IgM injected intravenously 30 minutes before initial laparotomy, permeability index (FIG. 4)
Experimental: IgM or saline was injected intravenously 30 minutes before initial laparotomy. At the end of reperfusion, blood is obtained and permeability index is calculated as the ratio of ^125I counts of dried intestine versus that of blood. Values represent means±standard error; n equals the numbers of mice used in experimental groups. 1=WT plus normal saline; 2=RAG plus normal saline; 3=RAG plus IgM hybridoma CM-22; 4=WT sham control.
This finding was unexpected because they have a normal level of IgM in their blood. These findings led to the hypothesis that a special population of B cells termed B-1 cells are responsible for secreting the pathogenic IgM. […] To identify the specific antibody or antibodies responsible for injury, a panel of hybridoma clones were constructed from an enriched pool of peritoneal B-1 cells harvested from normal mice. The general approach for preparing hybridomas from enriched fraction of peritoneal cells includes harvesting peritoneal cells from mice treated 7 days earlier with IL-10 and subsequently enriched for CD23 negative B cells by negative selection with magnetic beads. Enriched B cells are analyzed by FACS following staining with IgM, Mac-1 and CD23 specific Mab. […]
Twenty-two IgM-secreting hybridoma clones were analyzed by pooling an equal amount of IgM product from each of the clones. […]

[9] = system: non-muscle myosin heavy chain-II (NMHC-II) isoforms A, B and C; experiment: ELISA: IgM binding to captured NMHC-II from intestinal lysates; set-up: species or system mouse; settings: NMHC captured from jejuneum lysates of RAG-1^−/− mice
From the text: FIG. 8B is a series of graphs showing results of in vitro binding assays of IgM^CM-22 to the isoforms of non-muscle myosin heavy chain-II (NMHC-II). ELISA plates were coated with monoclonal antibodies for 3 different isoforms of NMHC-II (upper left: isoform A, upper right: isoform B, lower left: isoform C and lower right: anti-pan myosin antibody). Bound myosin heavy chain from intestinal lysates was detected by IgM^CM-22 or IgM^CM-31. The results represent mean±standard error of OD 405 nm units and are representative of triplicate samples.
as §4, with “101:3886-91).” for “101:3886-91). Lysates were prepared as described for immune precipitation (see below). Alkaline-phosphatase labeled goat anti-mouse IgM (Sigma, Mo.) was then used to detect bound IgM.”

[10] = system: P8 peptide; experiment: ELISA: IgM binding to P8 peptide-coated plates; settings: plate coated with 50 μg/ml P8
Experimental: FIG. 6C is a bar graph showing specific binding of the P8 peptide to IgM^CM-22. The ELISA plates were coated with 50 μg/ml solution of P8 peptide, followed by addition of IgM^CM-22 or IgM^CM-75 at 1 or 10 μg/ml. IgM binding was detected with a biotinylated rat anti-mouse IgM followed by streptavidin-phosphatase and color reaction. The results are representative of at least three independent experiments.
as §4

[11] = system: RAG-1^−/− mice; settings: IgM-reconstituted sham controls (no ischemia); Zhang et al. (2004); cited from earlier work
[12] = peptide mixed with IgM^CM-22 prior to injection in RAG-1^−/− mice

| Molecule | SPR binding to IgM^CM-31-coupled surface [1] | IgM and complement deposition in reperfused jejuneum (immunohistology) [2, 12] | mean pathology score [2, 12] | Kd [3] [µM] | IgM and complement deposition in reperfused tissues (immunohistology) [4] | mean pathology score [4] | IC50 [5] [µM] | relative binding of phage clone to IgM^CM-22 [6] | optimal concentration sufficient to block 50-100 μg of IgM^CM-22 (0.1-0.2 μM) [7] [µM] | restoration of I/R injury [8] | IgM and complement C4 and C3 deposition in reperfused jejuneum (immunohistology) ([2]; RAG-1^−/− mice reconstituted with the IgM alone, following RI) | mean pathology score ([2]; RAG-1^−/− mice reconstituted with the antibody alone) | binding of IgM to all three isoforms of NMHC-II (ELISA) [9] | IgM binding to P8 peptide-coated plate ([10]; IgM at 1 μg/ml) | IgM binding to P8 peptide-coated plate ([10]; IgM at 10 μg/ml) | IgM and complement deposition (immunohistology) [11] |
| --- | --- | --- | --- | --- | --- | --- | --- | --- | --- | --- | --- | --- | --- | --- | --- | --- |
| LMKNMDPLNDNV [N2] | no binding was observed | no deposition of IgM and complement | 13±8 | 123 ± 61 | blocked | 8±5 | – | – | – | – | – | – | – | – | – | – |
| NGNNVNGNRNNN [P8] | – | no evidence of IgM or complement binding | 6±3 | – | no apparent deposits of IgM or complement | 5.+−.3 | ~10 | bound with the highest efficiency | 10 | – | – | – | – | – | – | – |
| IgM^CM-22: natural IgM produced from hybridoma PTA-3507; heavy chain SEQ ID NO: 2, light chain SEQ ID NO: 8 (antibody, listed as Mus musculus) heavy: QVQLQQSGAELVKPGASVKISCKASGYAFSSYWMNWVKQRPGKGLEWIGQIYPGDGDTNYNGKFKGKATLTADKSSSTAYMQLSSLTSEDSAVYFCAREDYYGSDWYFDVWGTGTTVTVSSGKLAFFFLHIPF light: IVMTQSAASLAVSLGQRATISYRASKSVSTSGYSYMHWNQQKPGQPPRLLIYLVSNLESGVPARFSGSGSGTDFTLNIHPVEEEDAATYYCQHIRELTRSEGGPSWK | – | – | – | – | – | – | – | – | – | restored injury | co-localization of IgM and complement C4 and C3 within the microvilli | 31±13 and 31±10 | Above background binding | neither IgM bound above background | significantly more | No binding of IgM or complement |
